Measurements as given in ChEMBL document CHEMBL4330079, “Cyclin G-associated kinase (GAK) affinity and antiviral activity studies of a series of 3-C-substituted isothiazolo[4,3-b]pyridines” (Eur J Med Chem, 2019).

Assays:
[1] = target: T1, Cyclin-G-associated kinase (Homo sapiens, UniProt O14976); test: Binding affinity to wild type DNA-tagged human GAK (G13 to Y338 residues) expressed in bacterial expression system by quantitative PCR based KINOMEscan assay
T1 sequence (O14976 whole entry): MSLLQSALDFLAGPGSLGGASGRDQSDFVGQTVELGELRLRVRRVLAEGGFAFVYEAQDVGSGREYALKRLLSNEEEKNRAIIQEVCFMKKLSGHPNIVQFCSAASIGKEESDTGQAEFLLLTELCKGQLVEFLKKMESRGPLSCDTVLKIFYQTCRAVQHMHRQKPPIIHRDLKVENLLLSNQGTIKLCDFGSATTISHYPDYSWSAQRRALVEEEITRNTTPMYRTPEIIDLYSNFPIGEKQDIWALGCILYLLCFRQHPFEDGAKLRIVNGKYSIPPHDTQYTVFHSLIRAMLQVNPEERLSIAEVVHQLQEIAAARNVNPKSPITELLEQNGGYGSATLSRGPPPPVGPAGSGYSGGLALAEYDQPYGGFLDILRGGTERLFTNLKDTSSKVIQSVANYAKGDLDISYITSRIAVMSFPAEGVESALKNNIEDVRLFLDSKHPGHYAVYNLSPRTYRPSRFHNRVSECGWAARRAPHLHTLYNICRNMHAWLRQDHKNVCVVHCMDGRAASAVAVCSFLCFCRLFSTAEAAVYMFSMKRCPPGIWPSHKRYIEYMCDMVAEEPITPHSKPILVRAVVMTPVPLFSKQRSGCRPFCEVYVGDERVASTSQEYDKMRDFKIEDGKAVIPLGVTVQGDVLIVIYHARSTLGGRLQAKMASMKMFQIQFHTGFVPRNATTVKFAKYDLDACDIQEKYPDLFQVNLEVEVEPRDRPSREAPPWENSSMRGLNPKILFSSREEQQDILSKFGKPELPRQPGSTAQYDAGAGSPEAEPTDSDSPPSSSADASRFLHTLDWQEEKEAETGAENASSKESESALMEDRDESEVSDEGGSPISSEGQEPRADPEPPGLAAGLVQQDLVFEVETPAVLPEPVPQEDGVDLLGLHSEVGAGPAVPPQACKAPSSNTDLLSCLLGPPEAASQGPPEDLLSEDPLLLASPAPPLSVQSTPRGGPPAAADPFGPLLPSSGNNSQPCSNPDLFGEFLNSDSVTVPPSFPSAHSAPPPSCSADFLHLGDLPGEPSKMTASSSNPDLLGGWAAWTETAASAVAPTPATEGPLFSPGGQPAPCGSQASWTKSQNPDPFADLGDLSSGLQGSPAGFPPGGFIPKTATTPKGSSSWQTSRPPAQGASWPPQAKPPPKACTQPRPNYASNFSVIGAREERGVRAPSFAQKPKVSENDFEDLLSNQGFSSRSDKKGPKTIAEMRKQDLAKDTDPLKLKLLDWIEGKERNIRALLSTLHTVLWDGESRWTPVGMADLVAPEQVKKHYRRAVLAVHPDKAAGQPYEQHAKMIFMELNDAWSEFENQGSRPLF

dengue virus type 2 = test: Antiviral activity against DENV2 New Guinea C infected in human HuH7 cells after 48 hrs by luciferase reporter gene assay; assay type: functional, organism-based; details: Thailand/NGS-C/1944, Huh-7, 48 h
Huh-7 = test: Cytotoxicity against human HuH7 cells assessed as reduction in cell viability at 0.01 to 10 uM after 48 hrs by Cell-Titer Glo assay; assay type: cell-based; details: huh-7, 48 h

SMILES	Kd [1] [nM]	EC50 (dengue virus type 2) [µM]	Activity (Huh-7)
COc1ccc(-c2cnc3c(C#Cc4ccccc4)snc3c2)cc1OC	> 30000	–	–
COC(=O)c1ccc(-c2snc3cc(-c4ccc(OC)c(OC)c4)cnc23)cc1	> 30000	–	–
COc1ccc(-c2cnc3c(-c4ccncc4)snc3c2)cc1OC	520	–	–
COc1ccc(-c2cnc3c(-c4ccc(C#N)cc4)snc3c2)cc1OC	> 30000	–	–
COc1ccc(-c2cnc3c(-c4ccsc4)snc3c2)cc1OC	860	–	–
COc1ccc(-c2cnc3c(-c4ccccc4)snc3c2)cc1OC	770	–	–
COc1ccc(-c2cnc3c(-c4ccc(OC)c(OC)c4)snc3c2)cc1OC	–	3.35	Non-Toxic
